According to patent US20070232609A1, “Novel Antiparasitic Combination of Active Compounds” (BAYER HEALTHCARE AG, priority 2004, published 2007):

Tested on: Eimeria acervulina, E. maxima, E. tenella
Experiment: Cage experiment on coccidiosis/chicks
Type: in vivo
Settings: for Mortality %: day -3 to 8 (9) p.i.; for % efficacy (total score): 0% no action, 100% full action; for Dropping score / Lesion score: assessment 0 to 6
Method: The efficacy of the compounds according to the invention can be confirmed, for example, in cage experiments with the following experimental arrangement, in which the animals are treated with the respective individual components and with the mixtures of the individual components.
An active compound-containing feed is prepared such that the required amount of active compound is basically mixed with a nutritionally balanced animal feed, e.g. with the chick feed indicated below.
Cage Experiment on Coccidiosis/Chicks
8- to 12-day-old male chicks (e.g. LSL Brinkschulte/Senden) which have been reared coccidia-free receive the compounds according to the invention (test substances) in the concentration indicated in ppm with the feed from 3 days before (day −3) infection (=a.i.) until 8 (9) days after infection (=p.i.). 3 animals are kept in each cage. One or more groups of this type are employed per dose. Infection is carried out by means of a stomach tube directly into the crop with approximately 100 000 sporulated oocysts of Eimeria acervulina and with approximately 30 000 oocysts each of E. maxima and 40 000 sporulated oocysts of E. tenella. These are highly virulent strains. The exact infection dose is adjusted so that, if possible, one of three experimentally infected untreated chicks dies due to the infection. For assessment of the efficacy, the following criteria are taken into account: weight increase from the start of the experiment to the end of the experiment, death rate due to infection, macroscopic assessment of the faeces with respect to diarrhea and excretion of blood on days 5 and 7 p.i. (assessment 0 to 6), macroscopic assessment of the intestinal mucosa, in particular of the appendices (assessment 0 to 6) and the oocyst excretion as well as the proportion (in %) of the oocysts sporulating in the course of 24 hours. The number of oocysts in the faeces was determined with the aid of a McMaster counting chamber (see Engelbrecht and coworkers “Parasitologische Arbeitsmethoden in Medizin und Veterinärmedizin” [Parasitological Working Methods in Medicine and Veterinary Medicine], Akademie-Verlag, Berlin (1965)). The individual findings are related to the untreated non-infected control groups and a total score is calculated (cf. A. Haberkorn (1986), pp. 263 to 270 in Research in Avian Coccidiosis ed. L. R. McDougald, L. P. Joyner, P. L. Long, Proceedings of the Georgia Coccidiosis Conference, Nov. 18-20, 1985, Athens/Georgia USA).
In the column “ppm”, the concentration of the active compound employed in the feed is indicated in ppm.
In the column “mortality”, the percentage of the dead animals is indicated under % and the number of dead animals/animals employed in the experiment is indicated under n.
In the column “weight % of not inf. control”, the ratio of the weight of the treated animals to the weight of the non-infected control group is indicated.
In the columns “dropping scores”, “lesion score” and “oocyst control”, individual details of the action are given.
In the column “% efficacy”, the total score is assessed; 0% means no action, 100% means full action.

In the case of `FC(F)(F)c1nc2c(Cl)cc3c(c2[nH]1)OC(F)(F)C(F)(F)O3` [(I-A)*], the “Mortality n (dead animals/animals employed)” value (1 ppm in feed) was 0/3, the “Oocysts in % of inf. control” value (1 ppm in feed) was 36.0 % of inf. control and the “Weight in % of not inf. control” value (1 ppm in feed) was 16 % of not inf. control. The Mortality % (1 ppm in feed) was 0%, the “% efficacy (total score)” value (1 ppm in feed) was 15.7% and the Dropping score (1 ppm in feed) was 6. For the same molecule, the Lesion score (1 ppm in feed) was 6, the “Mortality n (dead animals/animals employed)” value (2.5 ppm in feed) was 0/3 and the “Oocysts in % of inf. control” value (2.5 ppm in feed) was 80.7 % of inf. control. The “Weight in % of not inf. control” value (2.5 ppm in feed) was 41 % of not inf. control, the Mortality % (2.5 ppm in feed) was 0% and the “% efficacy (total score)” value (2.5 ppm in feed) was 12.3%. For the same molecule, the Dropping score (2.5 ppm in feed) was 6 and the Lesion score (2.5 ppm in feed) was 6.

In the case of `N#CC(c1ccc(Cl)cc1)c1c(Cl)cc(-n2ncc(=O)[nH]c2=O)cc1Cl` (stereo not shown) [Diclazuril], the “Mortality n (dead animals/animals employed)” value (0.05 ppm in feed) was 0/3, the “Oocysts in % of inf. control” value (0.05 ppm in feed) was 17.0 % of inf. control and the “Weight in % of not inf. control” value (0.05 ppm in feed) was 86 % of not inf. control. The Mortality % (0.05 ppm in feed) was 0%, the “% efficacy (total score)” value (0.05 ppm in feed) was 69.3% and the Dropping score (0.05 ppm in feed) was 0. The Lesion score (0.05 ppm in feed) was 0, the “Mortality n (dead animals/animals employed)” value (0.1 ppm in feed) was 0/3 and the “Oocysts in % of inf. control” value (0.1 ppm in feed) was 14.0 % of inf. control. For the same molecule, the “Weight in % of not inf. control” value (0.1 ppm in feed) was 92 % of not inf. control, the Mortality % (0.1 ppm in feed) was 0% and the “% efficacy (total score)” value (0.1 ppm in feed) was 77.0%. For the same molecule, the Dropping score (0.1 ppm in feed) was 0-2 and the Lesion score (0.1 ppm in feed) was 0.
